Results taken from patent US7371720B2, “Cationic peptides of the phylloseptin family isolated from the skin secretion of Phyllomedusa hypochondrialis” (Empressa Brasileira de Pesquisa Agropecuaria - Embrapa, priority 2001, dated 2008).
Peptide text beside a SMILES is read from it.

Experiments:
Format in all cases: cell-based
[1] = test system: Enterococcus faecalis ATTC 29212; settings: 20 h, 37° C., TSB, 100% growth inhibition
Experimental: (§1) The microorganisms Escherichia coli ATTC 25922, Pseudomonas aeroginosa ATTC 27853, Staphylococcus aureus ATTC 25923 and Enterococcus faecalis ATTC 29212 and a Brazilian strain of P. aeroginosa were used for the anti-microbial assay
(§2) The microorganisms were cultured in stationary culture at 37° C. Bacteria were grown in Tryptic Soy Broth (TSB). The bioassays were performed by liquid growth inhibition assay lawn as described by Bulet et al (Bulet, P., Dimarcq, J. L., Hetru, C., Lagueux, M., Charlet, M., Hegy, G., VanDorsselaer, A. and Hoffmann, J. A. 1993. J. Biol. Chem. 268, 14893-14897). Molecules of Phylloseptin I were dissolved in sterile distilled and deionized water and diluted 8-fold in TSB (OXIOD England) broth. Various concentrations of PSI solution were tested, being the highest 128 μg/ml. The initial inoculum was approximately 1×10^5 colony forming units (CFU)/ml and limit of detection was 10^2 CFU/ml. The final volume was 250 μl (25 μl of the peptide test in water, 25 μl of the inoculum in TSB, and 200 μl of TSB broth). The minimal inhibitory concentration (MIC) was measured for turbidity (OD at 595 nm) 20 h after all microorganisms were grown in stationary culture at 37° C. The lowest concentration of the peptide in which no growth occurred was defined as the MIC.
(§3) The minimal inhibitory concentrations (MICs) of the isolated Phylloseptin I against several Gram-positive and Gram-negative bacteria were determined as described by Park et al (Park, C. B., Kim, M. S., and Kim, S. C. 1996. 218 Biochem. Biophys. Res. Commun. 408-413.). […] That is, the minimal inhibitory concentration was defined as the peptide concentration which produces 100% of microorganism growth inhibition after 20 h incubation in culture media.

[2] = test system: Escherichia coli ATTC 25922; settings: 20 h, 37° C., TSB, 100% growth inhibition
Experimental: as §1, §2, §3

[3] = test system: Staphylococcus aureus ATTC 25923; settings: Staphilococcus aureus ATTC; 20 h, 37° C., TSB; 100% growth inhibition
Experimental: as §1, §2, §3

[4] = test system: human red blood cells; experiment: Hemolysis assay
Experimental: Human erythrocytes (blood type O^−) from a healthy person were freshly prepared prior to each experiment. Hemolytic activity was assayed as described by Aboudy etal (Aboudy, Y., Mendelson, E., Shalit, I., Bessalle, R., Fridikin, M. 1994. Int. J. Peptide Protein Res. 43, 573-582.) with minor modifications. Three milliliters of freshly prepared erythrocytes (for methodology see Gibson, B. W., Tang, D., Mandrell, R., Kelly, M. and Spindel, E. R. 1991. J. Biol. Chem. 266, 23103-23111.21) was washed with isotonic phosphate-buffered saline (PBS), pH 7.4, until the color of the supernatant turned clear. The washed erythrocytes were then diluted to a final volume of 20 ml in the same buffer. Aliquots of cell suspentions (190 μl) containing samples (10 μl) were serially diluted in PBS, incubated at 37° C. for 30 min and then centrifuged at 4000×g for 5 min; 100 μl of supernatant was taken, diluted to 1.0 ml with PBS, and monitored at 567 nm. The relative optical density, as compared with that of the cell suspension treated with 0.2% Triton X-100, was defined as % hemolysis.
The hemolytic activity of Phylloseptin I and II was tested at different concentrations.

[5] = test system: Pseudomonas aeroginosa ATTC 27853; settings: Pseudomonas aeruginosa ATTC; 20 h, 37° C., TSB; 100% growth inhibition
Experimental: as §1, §2, §3

[6] = test system: Pseudomonas aeruginosa wt; settings: Pseudomonas aeruginosa wt (Brazilian strain); 20 h, 37° C., TSB; 100% growth inhibition
Experimental: as §1, §2, §3

| Compound | Minimal Inhibitory concentration [1] | Minimal Inhibitory concentration [2] | Minimal Inhibitory concentration [3] | Minimal Inhibitory concentration [5] | Minimal Inhibitory concentration [6] | other results |
| --- | --- | --- | --- | --- | --- | --- |
| CC1(C)S[C@@H]2[C@H](NC(=O)[C@H](N)c3ccccc3)C(=O)N2[C@H]1C(=O)O [Amplicilyn] | 128 µg/mL | 64 µg/mL |  |  |  |  |
| O=C(N[C@H](CO)[C@H](O)c1ccc([N+](=O)[O-])cc1)C(Cl)Cl [Chloranfenicol] | 32 µg/mL | 32 µg/mL | 32 µg/mL |  |  |  |
| CC[C@H](C)[C@H](NC(=O)[C@H](C)NC(=O)[C@H](CO)NC(=O)[C@@H](NC(=O)[C@H](C)NC(=O)[C@H](CC(N)=O)NC(=O)[C@@H](NC(=O)[C@H](C)NC(=O)[C@H](Cc1c[nH]cn1)NC(=O)[C@@H]1CCCN1C(=O)[C@@H](NC(=O)[C@H](CC(C)C)NC(=O)[C@H](CO)NC(=O)[C@H](CC(C)C)NC(=O)[C@@H](N)Cc1ccccc1)[C@@H](C)CC)[C@@H](C)CC)C(C)C)C(=O)N[C@@H](C)C(=O)N[C@@H](CCCCN)C(=O)N[C@@H](Cc1c[nH]cn1)C(=O)N[C@@H](CC(N)=O)C(=O)O [PS I, Phe Leu Ser Leu Ile Pro His Ala Ile Asn Ala Val Ser Ala Ile Ala Lys His Asn] (H-FLSLIPHAINAVSAIAKHN-OH) | 8 µg/mL | 16 µg/mL | 16 µg/mL | 8 µg/mL | 6 µg/mL | % Hemolysis of human red blood cells ([4]; 1 μg/mL (0.496 μM), 37° C., 30 min, relative to 0.2% Triton X-100): 0.00%; % Hemolysis of human red blood cells ([4]; 2 μg/mL (0.990 μM), 37° C., 30 min, relative to 0.2% Triton X-100): 0.00%; % Hemolysis of human red blood cells ([4]; 4 μg/mL (1.980 μM), 37° C., 30 min, relative to 0.2% Triton X-100): 0.00%; % Hemolysis of human red blood cells ([4]; 8 μg/mL (3.968 μM), 37° C., 30 min, relative to 0.2% Triton X-100): 0.30%; % Hemolysis of human red blood cells ([4]; 16 μg/mL (7.937 μM), 37° C., 30 min, relative to 0.2% Triton X-100): 0.57%; % Hemolysis of human red blood cells ([4]; 32 μg/mL (15.873 μM), 37° C., 30 min, relative to 0.2% Triton X-100): 0.60%; % Hemolysis of human red blood cells ([4]; 64 μg/mL (31.746 μM), 37° C., 30 min, relative to 0.2% Triton X-100): 0.98%; % Hemolysis of human red blood cells ([4]; 128 μg/mL (63.492 μM), 37° C., 30 min, relative to 0.2% Triton X-100): 1.98% |
| CC[C@H](C)[C@H](NC(=O)[C@H](C)NC(=O)[C@H](Cc1c[nH]cn1)NC(=O)[C@@H]1CCCN1C(=O)[C@@H](NC(=O)[C@H](CC(C)C)NC(=O)[C@H](CO)NC(=O)[C@H](CC(C)C)NC(=O)[C@@H](N)Cc1ccccc1)[C@@H](C)CC)C(=O)N[C@@H](CC(N)=O)C(=O)N[C@@H](C)C(=O)N[C@H](C(=O)N[C@@H](CO)C(=O)N[C@H](C(=O)N[C@@H](CC(C)C)C(=O)N[C@H](C(=O)N[C@@H](Cc1c[nH]cn1)C(=O)N[C@@H](Cc1c[nH]cn1)C(=O)N[C@@H](Cc1ccccc1)C(=O)O)C(C)C)[C@@H](C)O)C(C)C [PS II, Phe Leu Ser Leu Ile Pro His Ala Ile Asn Ala Val Ser Thr Leu Val His His Phe] (H-FLSLIPHAINAVSTLVHHF-OH) |  |  |  |  |  | % Hemolysis of human red blood cells ([4]; red cells of human, 1 μg/mL): 0.00%; % Hemolysis of human red blood cells ([4]; red cells of human, 2 μg/mL): 0.00%; % Hemolysis of human red blood cells ([4]; red cells of human, 4 μg/mL): 0.10%; % Hemolysis of human red blood cells ([4]; red cells of human, 8 μg/mL): 0.28%; % Hemolysis of human red blood cells ([4]; red cells of human, 16 μg/mL): 0.70%; % Hemolysis of human red blood cells ([4]; red cells of human, 32 μg/mL): 0.80%; % Hemolysis of human red blood cells ([4]; red cells of human, 64 μg/mL): 1.05%; % Hemolysis of human red blood cells ([4]; red cells of human, 128 μg/mL): 2.05% |
| Gentamicyn |  | 64 µg/mL |  | 64 µg/mL | 64 µg/mL |  |
| Polimixyn B |  | 64 µg/mL |  | 16 µg/mL | 16 µg/mL |  |
